Where a name gives a salt, the structure may show the parent alone.

Format in all cases: biochemical
Test [1] deals with human JAK1 (a.a. 837-1142) (Homo sapiens, UniProt P23458). The experiment in a line: In vitro JAK kinase assay (HTRF, phosphorylation of a biotinylated peptide), JAK1. The following applies: measured at 1 mM ATP. Put shortly: (§1)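 N-terminal His-tagged catalytic domains, baculovirus-expressed in insect cells, phosphorylated a biotinylated peptide for 1 hr at room temperature. EDTA stop was followed by SA-APC and Eu-Py20 antibody for 40 minutes, with phosphopeptide read by HTRF.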
(In general: In TR-FRET formats the signal depends on donor and acceptor labels being close together.)

The target of test [2] is human JAK1 (a.a. 837-1142). The description is as above. The following applies: ratio of JAK2 IC50 to JAK1 IC50, measured at 1 mM ATP. Summed up:
as §1

Test [3] has as its target Jak2 (a.a. 828-1132) (Homo sapiens (Human), UniProt O60674). Briefly: In vitro JAK kinase assay (HTRF, phosphorylation of a biotinylated peptide), JAK2. The following applies: measured at 1 mM ATP. Put shortly:
as §1

Sequence of Jak2 (a.a. 828-1132) (O60674 828-1132): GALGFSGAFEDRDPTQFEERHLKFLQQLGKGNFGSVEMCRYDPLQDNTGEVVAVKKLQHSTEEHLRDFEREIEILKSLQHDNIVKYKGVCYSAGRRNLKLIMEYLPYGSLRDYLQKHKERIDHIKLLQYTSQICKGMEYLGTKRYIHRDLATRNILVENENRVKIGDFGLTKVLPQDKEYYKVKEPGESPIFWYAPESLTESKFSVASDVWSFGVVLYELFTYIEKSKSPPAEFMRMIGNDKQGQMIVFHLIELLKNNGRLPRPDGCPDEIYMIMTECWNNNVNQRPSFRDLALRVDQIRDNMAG

The IC50 is the concentration needed to halve the response being measured. A low value points to inhibition by little substance. Consider `N#CCC1(n2cc(-c3ccnc4[nH]ccc34)cn2)CN(C2CCN(C(=O)Nc3ccc(F)cc3Cl)CC2)C1` [Example 305, N-(2-chloro-4-fluorophenyl)-4-{3-(cyanomethyl)-3-[4-(1H-pyrrolo[2,3-b]pyridin-4-yl)-1H-pyrazol-1-yl]azetidin-1-yl}piperidine-1-carboxamide], for which the IC50 in test [1] is not above 5 nM; in test [3], 50 to 100 nM. Also, the “IC50 Ratio JAK2/JAK1” value in test [2] was found to be 16.0.
In the case of `Cc1csc(NC(=O)N2CCC(N3CC(CC#N)(n4cc(-c5ncnc6[nH]ccc56)cn4)C3)CC2)n1` [Example 191, 4-{3-(cyanomethyl)-3-[4-(7H-pyrrolo[2,3-d]pyrimidin-4-yl)-1H-pyrazol-1-yl]azetidin-1-yl}-N-(4-methyl-1,3-thiazol-2-yl)piperidine-1-carboxamide], the values for the IC50 in test [1] and in test [3] were 20 to 30 nM and 10 to 50 nM, respectively. Moreover, the “IC50 Ratio JAK2/JAK1” value in test [2] came out at 1.4.
On the same counts, the results for `N#CCC1(n2cc(-c3ncnc4[nH]ccc34)cn2)CN(C2CCN(C(=O)c3nc(C(F)(F)F)cs3)CC2)C1` [Example 344, [3-[4-(7H-Pyrrolo[2,3-d]pyrimidin-4-yl)-1H-pyrazol-1-yl]-1-(1-{[4-(trifluoromethyl)-1,3-thiazol-2-yl]carbonyl}piperidin-4-yl)azetidin-3-yl]acetonitrile] are not above 5 nM, 50 to 100 nM and 18.9.
In the case of `N#CCC1(n2cc(-c3ncnc4[nH]ccc34)cn2)CN(C2CCN(Cc3cc(Br)nc(Br)c3)CC2)C1` [Example 225, {1-{1-[(2,6-dibromopyridin-4-yl)methyl]piperidin-4-yl}-3-[4-(7H-pyrrolo[2,3-d]pyrimidin-4-yl)-1H-pyrazol-1-yl]azetidin-3-yl}acetonitrile], the IC50 is not above 5 nM in test [1] and 10 to 50 nM in test [3]. In test [2], the “IC50 Ratio JAK2/JAK1” value stood at 3.8.
Turning to `CCNCc1cc(C(=O)N2CCC(N3CC(CC#N)(n4cc(-c5ncnc6[nH]ccc56)cn4)C3)CC2)nc(C(F)(F)F)n1` [Example 383, {1-(1-{[6-[(ethylamino)methyl]-2-(trifluoromethyl)pyrimidin-4-yl]carbonyl}piperidin-4-yl)-3-[4-(7H-pyrrolo[2,3-d]pyrimidin-4-yl)-1H-pyrazol-1-yl]azetidin-3-yl}acetonitrile], the concentration for half-maximal inhibition (IC50) in test [1] was not above 5 nM; in test [3], 10 to 50 nM. The “IC50 Ratio JAK2/JAK1” value in test [2] was found to be 30.5.
As to `COc1cc(C(=O)N2CCC(N3CC(CC#N)(n4cc(-c5ncnc6[nH]ccc56)cn4)C3)CC2)ccc1F` [Example 26, {1-[1-(4-fluoro-3-methoxybenzoyl)piperidin-4-yl]-3-[4-(7H-pyrrolo[2,3-d]pyrimidin-4-yl)-1H-pyrazol-1-yl]azetidin-3-yl}acetonitrile], the IC50 in test [1] was not above 5 nM; in test [3], not above 10 nM. The “IC50 Ratio JAK2/JAK1” value in test [2] is listed as 3.3.
For `N#CCC1(n2cc(-c3c(C#N)cnc4[nH]ccc34)cn2)CN(C2CCN(C(=O)c3c(F)cc(C#N)cc3F)CC2)C1` [Example 340, 4-{1-[1-[1-(4-cyano-2,6-difluorobenzoyl)piperidin-4-yl]-3-(cyanomethyl)azetidin-3-yl]-1H-pyrazol-4-yl}-1H-pyrrolo[2,3-b]pyridine-5-carbonitrile], in that order: 20 to 30 nM, 10 to 50 nM and 1.4.
As to `Cc1nc(S(=O)(=O)N2CCC(N3CC(CC#N)(n4cc(-c5ncnc6[nH]ccc56)cn4)C3)CC2)cn1C` [Example 259, {1-{1-[(1,2-dimethyl-1H-imidazol-4-yl)sulfonyl]piperidin-4-yl}-3-[4-(7H-pyrrolo[2,3-d]pyrimidin-4-yl)-1H-pyrazol-1-yl]azetidin-3-yl}acetonitrile], the IC50 in test [1] was not above 5 nM; in test [3], not above 10 nM. Further, the “IC50 Ratio JAK2/JAK1” value in test [2] is 4.6.
Regarding `N#CCC1(n2cc(-c3ncnc4[nH]ccc34)cn2)CN(C2CCN(C(=O)Nc3cc(F)cc(F)c3F)CC2)C1` [Example 173, 4-{3-(cyanomethyl)-3-[4-(7H-pyrrolo[2,3-d]pyrimidin-4-yl)-1H-pyrazol-1-yl]azetidin-1-yl}-N-(2,3,5-trifluorophenyl)piperidine-1-carboxamide], the results for the half-maximal inhibitory concentration (IC50) in test [1] and in test [3] were 5 to 20 nM and 10 to 50 nM, respectively. In test [2], the “IC50 Ratio JAK2/JAK1” value is 5.7.
Consider `N#CCC1(n2cc(-c3c(C#N)cnc4[nH]ccc34)cn2)CN(C2CCN(C(=O)c3cc(Br)ccc3Br)CC2)C1` [Example 335, 4-(1-{3-(cyanomethyl)-1-[1-(2,5-dibromobenzoyl)piperidin-4-yl]azetidin-3-yl}-1H-pyrazol-4-yl)-1H-pyrrolo[2,3-b]pyridine-5-carbonitrile], for which the IC50 in test [1] is not above 5 nM; in test [3], not above 10 nM. Further, in test [2], the “IC50 Ratio JAK2/JAK1” value is 2.4.
Turning to `N#CCC1(n2cc(-c3ncnc4[nH]ccc34)cn2)CN(C2CCN(C(=O)OCc3ccc(F)cc3F)CC2)C1` [Example 393, 2,4-difluorobenzyl 4-{3-(cyanomethyl)-3-[4-(7H-pyrrolo[2,3-d]pyrimidin-4-yl)-1H-pyrazol-1-yl]azetidin-1-yl}piperidine-1-carboxylate], the IC50 in test [1] was not above 5 nM; in test [3], 10 to 50 nM. In test [2], the “IC50 Ratio JAK2/JAK1” value was 7.1.
`CC1CC(N2CC(CC#N)(n3cc(-c4ncnc5[nH]ccc45)cn3)C2)CCN1C(=O)C1CCC(F)(F)CC1` (stereo not drawn) [Example 151, {1-{1-[(4,4-difluorocyclohexyl)carbonyl]-2-methylpiperidin-4-yl}-3-[4-(7H-pyrrolo[2,3-d]pyrimidin-4-yl)-1H-pyrazol-1-yl]azetidin-3-yl}acetonitrile]: the half-inhibitory concentration (IC50) in test [1] was in the range of 5 to 20 nM; in test [3], 50 to 100 nM. Also, in test [2], the “IC50 Ratio JAK2/JAK1” value amounted to 5.8.
For `COc1cc(OC)cc(C(=O)N2CCC(N3CC(CC#N)(n4cc(-c5ncnc6[nH]ccc56)cn4)C3)CC2)c1` [Example 33, {1-[1-(3,5-dimethoxybenzoyl)piperidin-4-yl]-3-[4-(7H-pyrrolo[2,3-d]pyrimidin-4-yl)-1H-pyrazol-1-yl]azetidin-3-yl}acetonitrile], the IC50 is not above 5 nM in test [1] and not above 10 nM in test [3]. For the same compound, the “IC50 Ratio JAK2/JAK1” value in test [2] is recorded as 0.5.
For `N#CCC1(n2cc(-c3ncnc4[nH]ccc34)cn2)CN(C2CCN(C(=O)c3cc(CN4CC[C@@H](F)C4)nc(C(F)(F)F)n3)CC2)C1` [Example 378, {1-(1-{[6-{[(3R)-3-fluoropyrrolidin-1-yl]methyl}-2-(trifluoromethyl)pyrimidin-4-yl]carbonyl}piperidin-4-yl)-3-[4-(7H-pyrrolo[2,3-d]pyrimidin-4-yl)-1H-pyrazol-1-yl]azetidin-3-yl}acetonitrile (trifluoroacetate salt: 4 TFA)], in that order: not above 5 nM, 10 to 50 nM and 32.7.
For `N#CCC1(n2cc(-c3c(C#N)cnc4[nH]ccc34)cn2)CN(C2CCN(C(=O)c3cc(Br)cc(Br)c3)CC2)C1` [Example 336, 4-(1-{3-(cyanomethyl)-1-[1-(3,5-dibromobenzoyl)piperidin-4-yl]azetidin-3-yl}-1H-pyrazol-4-yl)-1H-pyrrolo[2,3-b]pyridine-5-carbonitrile], in that order: not above 5 nM, not above 10 nM and 2.9.
Regarding `CC1(N2CC(CC#N)(n3cc(-c4ncnc5[nH]ccc45)cn3)C2)CCN(C(=O)c2cccc(F)c2)CC1` [Example 152, {1-[1-(3-Fluorobenzoyl)-4-methylpiperidin-4-yl]-3-[4-(7H-pyrrolo[2,3-d]pyrimidin-4-yl)-1H-pyrazol-1-yl]azetidin-3-yl}acetonitrile], the IC50 in test [1] fell in the range of 5 to 20 nM; in test [3], 10 to 50 nM. The “IC50 Ratio JAK2/JAK1” value in test [2] turned out to be 4.0.
Regarding `N#CCC1(n2cc(-c3c(C#N)cnc4[nH]ccc34)cn2)CN(C2CCN(C(=O)c3cc(C#N)ccc3C#N)CC2)C1` [Example 337, 2-[(4-{3-(cyanomethyl)-3-[4-(5-cyano-1H-pyrrolo[2,3-b]pyridin-4-yl)-1H-pyrazol-1-yl]azetidin-1-yl}piperidin-1-yl)carbonyl]terephthalonitrile], the IC50 in test [1] fell in the range of 5 to 20 nM; in test [3], 10 to 50 nM. Also, the “IC50 Ratio JAK2/JAK1” value in test [2] is recorded as 6.0.
For `COc1cccc(NC(=O)N2CCC(N3CC(CC#N)(n4cc(-c5ncnc6[nH]ccc56)cn4)C3)CC2)c1` [Example 181, 4-{3-(cyanomethyl)-3-[4-(7H-pyrrolo[2,3-d]pyrimidin-4-yl)-1H-pyrazol-1-yl]azetidin-1-yl}-N-(3-methoxyphenyl)piperidine-1-carboxamide], in that order: not above 5 nM, 10 to 50 nM and 4.9.
`N#CCC1(n2cc(-c3ncnc4[nH]ccc34)cn2)CN(C2CCN(Cc3c(C(F)(F)F)ccc(Cl)c3F)CC2)C1` [Example 236, {1-{1-[3-chloro-2-fluoro-6-(trifluoromethyl)benzyl]piperidin-4-yl}-3-[4-(7H-pyrrolo[2,3-d]pyrimidin-4-yl)-1H-pyrazol-1-yl]azetidin-3-yl}acetonitrile]: the IC50 in test [1] is not above 5 nM; in test [3], not above 10 nM. Also, in test [2], the “IC50 Ratio JAK2/JAK1” value stood at 5.5.
For `N#CCC1(n2cc(-c3ncnc4[nH]ccc34)cn2)CN(C2CCN(C(=O)c3c(F)cc(F)cc3F)CC2)C1` [Example 49, {3-[4-(7H-pyrrolo[2,3-d]pyrimidin-4-yl)-1H-pyrazol-1-yl]-1-[1-(2,4,6-trifluorobenzoyl)piperidin-4-yl]azetidin-3-yl}acetonitrile], in that order: not above 5 nM, not above 10 nM and 6.5.

The values above are taken from patent US9999619B2, “Piperidin-4-yl azetidine derivatives as JAK1 inhibitors” (Incyte Corporation, priority 2010, dated 2018).
